# According to PMC10574185, “Encapsulation and Biological Activity of Hesperetin Derivatives with HP-β-CD” (Molecules, 2023):
# Like-named read-outs stand apart in the source and are kept apart here.
# Tests used:
# [1] = FRAP assay (ferric-ion reducing antioxidant power); conditions: mean ± SD
# Description: (§1) To evaluate the antioxidant ability of the tested systems, antioxidant analysis was performed. Antioxidants can scavenge hydroxyl radicals in two ways: by reacting directly with hydroxyl radicals (DPPH^•, ABTS^•+) or indirectly inhibiting the formation of hydroxyl radicals by chelating metal ions involved in the production of hydroxyl radicals. The antioxidant activity of the systems studied was investigated by using DPPH^• scavenging, ABTS^•+ scavenging ability, and Fe^2+-chelating ability. In this study, the antioxidant activity of pure hesperetin and its Schiff bases (HHSB, HIN, and HTSC) and HP-β-CD complexes were compared, and the positive control was Trolox.
# The antioxidant capacity determined by the FRAP assay (the ability of plasma to reduce iron) was carried out using a modification of the FRAP assay. The FRAP reagent consisted of the following solutions: 300 mM acetate, pH 3.6 glacial acetic acid buffer, 20 mM ferric chloride (FeCl3×6H2O), and 10 mM 2,4,6-tripyridyl-S-triazine (TPTZ) prepared in 40 mM HCl. The aforementioned solutions were mixed together in a ratio of 10:1:1 (v/v/v). The FRAP assay consisted of adding 15 µL of sample to 1.98 mL of reagent and incubating the mixture at 37 °C for 4 min. Absorbance measurement was recorded at 593 nm against a blank. Total antioxidant capacity was estimated relative to a standard of known FRAP concentration, ferrous sulfate.
# [2] = DPPH assay (antioxidant activity); conditions: concentration 0.1 mg/mL, mean ± SD
# Description: as §1
# The detailed methodology of DPPH assay was described in the previous paper by Sykuła et al..
# [3] = Phase solubility studies with HP-β-CD; format: physicochemical
# Description: The purpose of this part of the study was to determine the solubility of compounds of hesperetin and its Schiff bases (HHSB, HIN, and HTSC) in aqueous solution at different pHs and temperatures, and the effect of their inclusion in modified HP-β-CD on the aqueous solubility of these compounds at different pH values.
# The effect of the presence of HP-β-CD at different temperatures (25, 37, and 60 °C) was determined by developing phase solubility diagrams.
# In accordance with the methodology described in Section 3.4, excess amounts of each tested substance were added to aqueous solution with increasing concentration of HP-β-CD up to 16 mM, respectively, in 2 mL of 100 mM sodium acetate buffer (pH 3.6), 100 mM sodium phosphate buffer (pH 6.5) or 100 mM sodium borate buffer (pH 8.5).
# Phase solubility studies were conducted according to [64] with some modifications. Excess amounts of each tested substance were added to aqueous solution with increasing concentration of HP-β-CD up to 16 mM, in 2 mL of 100 mM sodium acetate buffer (pH 3.6), 100 mM sodium phosphate buffer (pH 6.5), or 100 mM sodium borate buffer (pH 8.5), respectively. The samples were maintained in an ultrasonic bath at various temperatures (25, 37, and 60 °C) for 60 min to reach equilibrium. The aqueous solutions were then filtered through 0.45 µm acetate cellulose (CA) membrane filter and diluted. The tested compound concentration on each clear filtrate was spectrophotometrically determined by measuring at their wavelength maximum.
# The complexation constant (Kc) between studied molecules and HP-β-CD was determined by using Equation (1):(1) Kc=slope/S0 (1−slope) where S0 means the water solubility of the studied substance, and “slope” means the slope of the phase solubility diagram.
# Complexation efficiency was calculated from the slope of the phase solubility diagram using Equation (2):(2) CE=S0×Kc=slope/1−slope
# The CE was also applied to evaluate the molar ratio in solution of tested systems using Equation (3):(3) Compound:HP−β−CD=1:(1+1/CE)
# [4] = system: Staphylococcus aureus ATCC 25923; assay: Minimal inhibition concentration (dilution + diffusion-well); format: cell-based; conditions: ATCC25923, 37 °C, 18 h
# Description: The MIC was performed for compounds and strains sensitive to their action in the antagonistic test. Minimum inhibitory concentration was determined by combining the dilution method with the diffusion-well method. Test compounds at a concentration of 500 μM were prepared in 5% (w/w) DMSO. Surface layer of microorganisms, against which antagonistic activity was noted, were prepared in the same way as for the antagonistic test. Then, two-fold sequential dilutions of the test compounds in the range of 500 µM to 62.5 µM were prepared. Wells with a diameter of 8 mm cut in the Mueller–Hinton Agar (Merck, Darmstadt, Germany) with the test strain were added with 50 µL of the prepared dilutions, which corresponded to the following concentrations of the tested compounds: […], 1.25 mM, 0.625 mM, and […]. Petri dishes prepared in this way were incubated at 37 °C for 18 h. After a given time, the MIC value was read. The MIC concentration expressed in µM was the first concentration of the tested compounds at which growth inhibition of the test strain was observed.
# [5] = aqueous buffer, thermodynamic from solid, 25 °C, pH 3.6 sodium acetate buffer, without cyclodextrin, read-out: solubility without HP-β-CD (value in brackets) (converted)
# [6] = aqueous buffer, thermodynamic from solid, 25 °C, pH 6.5 sodium phosphate buffer, without cyclodextrin, read-out: solubility without HP-β-CD (value in brackets) (converted)
# [7] = aqueous buffer, thermodynamic from solid, 25 °C, pH 8.5 sodium borate buffer, without cyclodextrin, read-out: solubility without HP-β-CD (value in brackets) (converted)
# [8] = aqueous buffer, thermodynamic from solid, 37 °C, pH 3.6 sodium acetate buffer, without cyclodextrin, read-out: solubility without HP-β-CD (value in brackets) (converted)
# [9] = aqueous buffer, thermodynamic from solid, 37 °C, pH 6.5 sodium phosphate buffer, without cyclodextrin, read-out: solubility without HP-β-CD (value in brackets) (converted)
# [10] = aqueous buffer, thermodynamic from solid, 37 °C, pH 8.5 sodium borate buffer, without cyclodextrin, read-out: solubility without HP-β-CD (value in brackets) (converted)
# [11] = aqueous buffer, thermodynamic from solid, 60 °C, pH 3.6 sodium acetate buffer, without cyclodextrin, read-out: solubility without HP-β-CD (value in brackets) (converted)
# [12] = aqueous buffer, thermodynamic from solid, 60 °C, pH 6.5 sodium phosphate buffer, without cyclodextrin, read-out: solubility without HP-β-CD (value in brackets) (converted)
# [13] = aqueous buffer, thermodynamic from solid, 60 °C, pH 8.5 sodium borate buffer, without cyclodextrin, read-out: solubility without HP-β-CD (value in brackets) (converted)
# [14] = thermodynamic from solid, 25 °C, pH 3.6 sodium acetate buffer, with HP-β-CD, read-out: S0 (solubility with HP-β-CD)
# [15] = thermodynamic from solid, 25 °C, pH 6.5 sodium phosphate buffer, with HP-β-CD, read-out: S0 (solubility with HP-β-CD)
# [16] = thermodynamic from solid, 25 °C, pH 8.5 sodium borate buffer, with HP-β-CD, read-out: S0 (solubility with HP-β-CD)
# [17] = thermodynamic from solid, 37 °C, pH 3.6 sodium acetate buffer, with HP-β-CD, read-out: S0 (solubility with HP-β-CD)
# [18] = thermodynamic from solid, 37 °C, pH 6.5 sodium phosphate buffer, with HP-β-CD, read-out: S0 (solubility with HP-β-CD)
# [19] = thermodynamic from solid, 37 °C, pH 8.5 sodium borate buffer, with HP-β-CD, read-out: S0 (solubility with HP-β-CD)
# [20] = thermodynamic from solid, 60 °C, pH 3.6 sodium acetate buffer, with HP-β-CD, read-out: S0 (solubility with HP-β-CD)
# [21] = thermodynamic from solid, 60 °C, pH 6.5 sodium phosphate buffer, with HP-β-CD, read-out: S0 (solubility with HP-β-CD)
# [22] = thermodynamic from solid, 60 °C, pH 8.5 sodium borate buffer, with HP-β-CD, read-out: S0 (solubility with HP-β-CD)
compound,measurement,setting,value
"COc1ccc(C2CC(=O)c3c(O)cc(O)cc3O2)cc1O (centres unmarked) [Hesperetin, 3′,5,7-Trihydroxy-4′-methoxyflavanone]",FRAP antioxidant activity,[1],0.0005 ± 0.0005 mmolFe(II)/L
same,DPPH antioxidant activity,[2],38.08 ± 2.7%
same,CE complexation efficiency,"[3]; 25 °C, pH 3.6, with HP-β-CD",34.7%
same,Kc complexation constant,"[3]; 25 °C, pH 3.6, with HP-β-CD",3221 ± 358 M⁻¹
same,increase of solubility with HP-β-CD,"[3]; 25 °C, pH 6.5, HP-β-CD at 16 mM",five-fold
same,CE complexation efficiency,"[3]; 25 °C, pH 6.5, with HP-β-CD",248%
same,Kc complexation constant,"[3]; 25 °C, pH 6.5, with HP-β-CD",11933 ± 1949 M⁻¹
same,CE complexation efficiency,"[3]; 25 °C, pH 8.5, with HP-β-CD",80.4%
same,Kc complexation constant,"[3]; 25 °C, pH 8.5, with HP-β-CD",2513 ± 143 M⁻¹
same,CE complexation efficiency,"[3]; 37 °C, pH 3.6, with HP-β-CD",44.4%
same,Kc complexation constant,"[3]; 37 °C, pH 3.6, with HP-β-CD",3171 ± 887 M⁻¹
same,CE complexation efficiency,"[3]; 37 °C, pH 6.5, with HP-β-CD",25%
same,Kc complexation constant,"[3]; 37 °C, pH 6.5, with HP-β-CD",2280 ± 152 M⁻¹
same,CE complexation efficiency,"[3]; 37 °C, pH 8.5, with HP-β-CD",19%
same,Kc complexation constant,"[3]; 37 °C, pH 8.5, with HP-β-CD",1703 ± 163 M⁻¹
same,CE complexation efficiency,"[3]; 60 °C, pH 3.6, with HP-β-CD",34%
same,Kc complexation constant,"[3]; 60 °C, pH 3.6, with HP-β-CD",2566 ± 144 M⁻¹
same,CE complexation efficiency,"[3]; 60 °C, pH 6.5, with HP-β-CD",11%
same,Kc complexation constant,"[3]; 60 °C, pH 6.5, with HP-β-CD",1179 ± 888 M⁻¹
same,CE complexation efficiency,"[3]; 60 °C, pH 8.5, with HP-β-CD",37%
same,Kc complexation constant,"[3]; 60 °C, pH 8.5, with HP-β-CD",2365 ± 221 M⁻¹
same,solubility at 60 min,[3]; [5],50 µM
same,solubility at 60 min,[3]; [6],49 µM
same,solubility at 60 min,[3]; [7],280 µM
same,solubility at 60 min,[3]; [8],80 µM
same,solubility at 60 min,[3]; [9],85 µM
same,solubility at 60 min,[3]; [10],98 µM
same,solubility at 60 min,[3]; [11],95 µM
same,solubility at 60 min,[3]; [12],82 µM
same,solubility at 60 min,[3]; [13],120 µM
same,solubility at 60 min,[3]; [14],108 ± 4 µM
same,solubility at 60 min,[3]; [15],208 ± 110 µM
same,solubility at 60 min,[3]; [16],320 ± 32 µM
same,solubility at 60 min,[3]; [17],140 ± 40 µM
same,solubility at 60 min,[3]; [18],110 ± 30 µM
same,solubility at 60 min,[3]; [19],110 ± 10 µM
same,solubility at 60 min,[3]; [20],130 ± 20 µM
same,solubility at 60 min,[3]; [21],96 ± 9 µM
same,solubility at 60 min,[3]; [22],150 ± 27 µM
COc1ccc(C2C/C(=N\NC(=O)c3ccncc3)c3c(O)cc(O)cc3O2)cc1O (racemic) [HIN],MIC,[4],2.5 µM
same,DPPH antioxidant activity,[2],34.62 ± 3.8%
same,CE complexation efficiency,"[3]; 25 °C, pH 3.6, with HP-β-CD",0.7%
same,Kc complexation constant,"[3]; 25 °C, pH 3.6, with HP-β-CD",102 ± 43 M⁻¹
same,CE complexation efficiency,"[3]; 25 °C, pH 6.5, with HP-β-CD",0.2%
same,Kc complexation constant,"[3]; 25 °C, pH 6.5, with HP-β-CD",39 ± 3.6 M⁻¹
same,CE complexation efficiency,"[3]; 25 °C, pH 8.5, with HP-β-CD",1.3%
same,Kc complexation constant,"[3]; 25 °C, pH 8.5, with HP-β-CD",143 ± 1.6 M⁻¹
same,CE complexation efficiency,"[3]; 37 °C, pH 3.6, with HP-β-CD",1.3%
same,Kc complexation constant,"[3]; 37 °C, pH 3.6, with HP-β-CD",145 ± 13 M⁻¹
same,CE complexation efficiency,"[3]; 37 °C, pH 6.5, with HP-β-CD",0.04%
same,Kc complexation constant,"[3]; 37 °C, pH 6.5, with HP-β-CD",25 ± 3.9 M⁻¹
same,CE complexation efficiency,"[3]; 37 °C, pH 8.5, with HP-β-CD",0.04%
same,Kc complexation constant,"[3]; 37 °C, pH 8.5, with HP-β-CD",28 ± 3.9 M⁻¹
same,increase of solubility with HP-β-CD,"[3]; 60 °C, pH 3.6",five-fold
same,CE complexation efficiency,"[3]; 60 °C, pH 3.6, with HP-β-CD",0.3%
same,Kc complexation constant,"[3]; 60 °C, pH 3.6, with HP-β-CD",62 ± 1.7 M⁻¹
same,increase of solubility with HP-β-CD,"[3]; 60 °C, pH 6.5",five-fold
same,CE complexation efficiency,"[3]; 60 °C, pH 6.5, with HP-β-CD",0.3%
same,Kc complexation constant,"[3]; 60 °C, pH 6.5, with HP-β-CD",61 ± 2.6 M⁻¹
same,CE complexation efficiency,"[3]; 60 °C, pH 8.5, with HP-β-CD",3.7%
same,Kc complexation constant,"[3]; 60 °C, pH 8.5, with HP-β-CD",132 ± 23 M⁻¹
same,solubility at 60 min,"[3]; aqueous buffer solutions, 25 °C, pH 3.6 to 8.5, read-out: solubility, increasing trend with increasing pH",17 to 90 µM
same,solubility at 60 min,[3]; [5],29 µM
same,solubility at 60 min,[3]; [6],17 µM
same,solubility at 60 min,[3]; [7],20 µM
same,solubility at 60 min,[3]; [8],20 µM
same,solubility at 60 min,[3]; [9],1 µM
same,solubility at 60 min,[3]; [10],1 µM
same,solubility at 60 min,[3]; [11],8 µM
same,solubility at 60 min,[3]; [12],8 µM
same,solubility at 60 min,[3]; [13],143 µM
same,solubility at 60 min,[3]; [14],68 ± 40 µM
same,solubility at 60 min,[3]; [15],52 ± 24 µM
same,solubility at 60 min,[3]; [16],90 ± 50 µM
same,solubility at 60 min,[3]; [17],90 ± 50 µM
same,solubility at 60 min,[3]; [18],15 ± 9 µM
same,solubility at 60 min,[3]; [19],14 ± 10 µM
same,solubility at 60 min,[3]; [20],41 ± 20 µM
same,solubility at 60 min,[3]; [21],41 ± 20 µM
same,solubility at 60 min,[3]; [22],283 ± 27 µM
